Experiments:
Format in all cases: cell-based
KYSE-520 cells = experiment: CCK-8 cell proliferation assay; conditions: Homo sapiens, 168 h; KYSE-520, CCK-8, 7 days; read-out: growth inhibition IC50
Experimental: The cell proliferation inhibition EC50 was determined by CCK-8 assay. KYSE-520 cells were seeded at 5 × 10^3 cells/well in 96 well plates. After 24 h, P9 was added to the medium starting at 80 μM in a 2-fold dilution rate of 0.16 μM. After 7 days, 10 μL of CCK-8 test solution (APExBIO Technology, Houston, TX, USA) was added into each well and incubated for 2 h at 37 °C. The optical density (OD) at 450 nm was measured with a microplate reader (Molecular Device, Sunnyvale, CA, USA). The cell viability rate at different concentrations of P9 treatment was determined with Prism, version 9.5.1 (GraphPad, San Diego, CA, USA).

[1] = tested on: KYSE-520, SKBR3, U2OS, MCF7, H358 and A549 cells; experiment: Colony formation assay; conditions: 3 weeks treatment
Experimental: HEK293, SKBR3, U2OS, MCF7 and A549 cells were grown in DMEM supplemented with 10% FBS, penicillin (50 units/mL), and streptomycin (50 μg/mL) in a 37 °C incubator containing 5% CO2. KYSE-520 and H358 cells were grown in RPMI-1640 supplemented with 10% FBS, penicillin (50 units/mL), and streptomycin (50 μg/mL) in a 37 °C incubator containing 5% CO2. For western-blot analysis, protein samples were separated by SDS-PAGE, transferred to nitrocellulose membranes, and incubated overnight at 4 °C with corresponding primary antibodies diluted in 5% BSA in phosphate-buffered saline Tween (PBST). SuperSignal™ West Pico PLUS (PI34580; Thermo Scientific) was used to visualize the antibodies in the bioanalytical imaging system (Azure Biosystems c500). Anti-p-ERK1/2 (T202/Y204) (4370), and anti-ERK1/2 (4696) were purchased from Cell Signaling Technology. Anti-GAPDH (sc-365062), anti-SHP2 (sc-7384), anti-SHP1 (sc-7289), and anti-Actin (sc-8432) antibodies were purchased from Santa Cruz. Anti-PTP1B (ab244207) antibody was purchased from Abcam. For colony formation assay, a total of approximately 200–500 cells were seeded to each well in a 12-well plate. The wells were then treated with DMSO, compound P9 and 3 at 37 °C for 3 weeks, gently washed, and stained with crystal violet.

SHP2 = target: T1, SHP2 (Homo sapiens, UniProt Q06124); experiment: SHP2 degradation by Western blotting in HEK293 cells; set-up: endogenous in cells; host or cells: HEK293; conditions: HEK293 cells
T1 sequence (Q06124 1-593): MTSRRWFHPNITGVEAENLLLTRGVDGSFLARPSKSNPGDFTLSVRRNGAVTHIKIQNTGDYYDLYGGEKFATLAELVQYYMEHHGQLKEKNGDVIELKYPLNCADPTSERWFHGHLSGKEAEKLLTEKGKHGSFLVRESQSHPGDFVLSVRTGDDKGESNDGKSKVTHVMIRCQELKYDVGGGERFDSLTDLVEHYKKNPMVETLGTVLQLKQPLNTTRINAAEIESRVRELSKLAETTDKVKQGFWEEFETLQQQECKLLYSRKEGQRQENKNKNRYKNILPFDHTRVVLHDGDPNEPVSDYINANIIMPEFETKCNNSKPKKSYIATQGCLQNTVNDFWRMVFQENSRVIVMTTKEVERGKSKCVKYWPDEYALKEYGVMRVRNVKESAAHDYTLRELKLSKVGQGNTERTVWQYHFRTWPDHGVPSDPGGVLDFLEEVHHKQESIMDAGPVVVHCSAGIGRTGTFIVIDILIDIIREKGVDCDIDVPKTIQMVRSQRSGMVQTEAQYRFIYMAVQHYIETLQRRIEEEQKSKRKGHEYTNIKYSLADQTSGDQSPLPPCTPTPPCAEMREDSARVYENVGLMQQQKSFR

SMILES: Cc1ncsc1-c1ccc([C@H](C)NC(=O)[C@@H]2C[C@@H](O)CN2C(=O)[C@@H](NC(=O)CCCCCCCCCN2CCN(C(=O)CCCCCC3(CN)CCN(c4cnc(Sc5cccc(Cl)c5Cl)c(N)n4)CC3)CC2)C(C)(C)C)cc1 [P9, (2S,4R)-1-((S)-2-(10-(4-(6-(1-(6-amino-5-((2,3-dichlorophenyl)thio)pyrazin-2-yl)-4-(aminomethyl)piperidin-4-yl)hexanoyl)piperazin-1-yl)decanamido)-3,3-dimethylbutanoyl)-4-hydroxy-N-((S)-1-(4-(4-methylthiazol-5-yl)phenyl)ethyl)pyrrolidine-2-carboxamide]
- IC50 (KYSE-520 cells): 640 ± 130 nM
- growth inhibition in colony formation assay compared with compound 3 [1]: improved efficacy in inhibiting the growth of these cancer cells
- time at which maximal SHP2 depletion was achieved (SHP2): 16 h
- DC50 (SHP2; 16 h of treatment, read-out: DC50 (concentration required for 50% degradation of protein)): 35.2 ± 1.5 nM
- hook effect (SHP2; tested concentration range): no significant hook effect
- SHP2 protein degraded (SHP2; within 6 h of P9 treatment): Over 90%

— article PMC10574094, “Discovery of a SHP2 Degrader with In Vivo Anti-Tumor Activity” (Molecules, 2023)
